“Also recorded” adds a separate entry of the source.

One experiment has as its system INS-1 cells. The experiment is described as follows: Proliferation of INS-1 cells ([methyl-3H] thymidine incorporation). The class given is cell-based, rat. The settings on record: wells coated with peptide and blocked with BSA, vs BSA coated control wells. The protocol:
To investigate if FOL-005 and FOL-014 could induce proliferation of β-cells we used INS-1 cells. Rat INS-1 cells were seeded in 96-well plates in RPMI medium with supplement and after 2 hours the medium was changed to RPMI without supplement. During the proliferation experiment the cells were incubated at different test conditions (FOL-005, FOL-014, coated or in solution, 48 h incubation) and during the last 20 hours of culture period the cells were pulsed with 1 μ Ci/well of [methyl-3H] thymidine. The cells were then harvested onto glass fiber filters using a FilterMate harvester. The filters were air dried, and the bound radioactivity was measured using a liquid scintillation counter. To study whether FOL-005 influenced β-cell proliferation, INS-1 cells were treated with increasing amounts of soluble FOL-005 (0.06-6 μM) during 48 hours and proliferation was measured with radiolabeled thymidine incorporation into newly synthesized DNA.
For orientation: Dividing cells build labelled thymidine or BrdU into new DNA.

The next experiment has as its system isolated mouse islets. Briefly: Insulin and glucagon secretion from isolated mouse islets (Example 12). The class given is cell-based. The method, then:
Twelve-week-old male C57/bl6 mice were euthanized with isoflurane and cervical dislocation. After clamping the hepatic ducts, 3 ml of 0.9 U/ml collagenase P was injected into the bile duct to inflate the pancreas. The pancreas was then removed and digested for 19 min at 37° C. The samples were vigorously shaken to disrupt the tissue. The digest was quickly transferred into ice cold Hank's Balanced Salts Solution with Ca^2+ and Mg^2+. The suspension was allowed to sit for 8 min to allow the islet to sink, and the islets were washed in the same manner four times. The islets were then handpicked and sorted according to size.
Freshly isolated islets were seeded in groups of 5 in a 96-well plate and preincubated for 1 h at 37° C. in a Krebs-Ringer bicarbonate buffer (pH 7.4). The islets were incubated for 1 h at 37° C. in Krebs-Ringer buffered solution supplemented with 0.6 or 6 μM FOL-014 or 100 nM GLP-1 or left unsupplemented for control. Immediately after incubation, the medium was removed for assays of insulin and glucagon using Mercodia's ELISA kits. The effect of FOL-014 on insulin (FIGS. 8A and B) and glucagon (FIGS. 8C and D) secretion from isolated mouse islets was measured in the presence of low glucose (2.8 mM; FIGS. 8A and C) or high glucose (16.7 mM; FIGS. 8B and D) concentrations.

The subject of another experiment is db/db mice. Briefly: HbA1c in db/db mice after 4 weeks of dosing. The class given is in vivo, mouse. The settings on record: 100 nmol/kg subcutaneously, 5 days per week for 4 weeks, vs PBS control. The protocol:
To investigate the long-term effect of FOL-014 and FOL-056 in diabetic mice, db/db mice were dosed with 100 nmol/kg peptide subcutaneously, 5 days per week for 4 weeks. Control mice were injected with PBS. After 4 weeks of treatment the mice were terminated and 25 μl whole blood was immediately frozen for subsequent HbA1c analysis. (FIG. 21).

[1] abbreviates: low glucose (2.8 mM), FOL-014 0.6 or 6 μM.

Regarding “KPLAEIDSIELSYGIK (MISC_FEATURE - peptide, FOL-014)”, the “proliferation of INS-1 cells” value in the experiment with INS-1 cells is “stimulated proliferation compared to control; also recorded: induced more proliferation compared to only BSA coated wells”. In addition, the insulin secretion result in the experiment with isolated mouse islets (high glucose (16.7 mM), 600 nM) was “significantly increased insulin secretion”; in the experiment with isolated mouse islets (high glucose (16.7 mM), 6 μM), “but not 6 μM FOL-014, significantly increased insulin secretion”; in the experiment with isolated mouse islets (setting [1]), “did not increase insulin secretion”. Moreover, the glucagon secretion entry in the experiment on isolated mouse islets (high glucose (16.7 mM), both concentrations (0.6 and 6 μM)) was “efficiently reduced glucagon secretion”; in the experiment on isolated mouse islets (setting [1]) it was “reduced glucagon secretion as compared with control and GLP-1”. Also, in the experiment on db/db mice, the HbA1c entry was “reduce the HbA1c in db/db mice as compared with the untreated control group; also recorded: significantly lower HbA1c”.

These data come from patent US20240327459A1, “PEPTIDE FRAGMENTS FOR TREATMENT OF DIABETES” (Follicum AB, priority 2018, published 2024).
